Measured values from ChEMBL document CHEMBL1147622, “Design and synthesis of indolo[2,3-a]quinolizin-7-one inhibitors of the ZipA-FtsZ interaction” (2004).

What was measured:
[1] = Antibacterial activity against Gram-positive, Gram-negative bacteria and Escherichia coli; assay type: functional
Escherichia coli = test: Inhibition of ZipA FtsZ binding at 1 mM using an optical biosensor system

MIC [1] [µM]	inhibition (Escherichia coli) [%]	SMILES
≥ 200	21	O=C(CCCn1c2c(c3ccccc31)C(=O)CN1CCCCC21)NCC(F)(F)F (stereo not given)
≥ 200	38	O=C(NCCCn1c2c(c3ccccc31)C(=O)CN1CCCCC21)c1ccco1 (stereo not given)
≥ 200	47	NCCCn1c2c(c3ccccc31)C(=O)CN1CCCCC21 (stereo not given)
≥ 200	11	O=C1CN2CCCCC2c2c1c1ccccc1n2CCCNS(=O)(=O)c1ccc(Cl)s1 (stereo not given)
≥ 200	23	Cc1ccc(CNC(=O)CCCn2c3c(c4ccccc42)C(=O)CN2CCCCC32)o1 (stereo not given)
≥ 200	31	O=C(Cn1c2c(c3ccccc31)C(=O)CN1CCCCC21)NC1CCCC1 (stereo not given)
≥ 200	32	Cc1ccc(CNC(=O)CCn2c3c(c4ccccc42)C(=O)CN2CCCCC32)o1 (stereo not given)
≥ 200	25	CCCCS(=O)(=O)NCCCn1c2c(c3ccccc31)C(=O)CN1CCCCC21 (stereo not given)
≥ 200	33	O=C(Cc1ccc(F)cc1)NCCCn1c2c(c3ccccc31)C(=O)CN1CCCCC21 (stereo not given)
≥ 200	46	CC(C)S(=O)(=O)NCCCn1c2c(c3ccccc31)C(=O)CN1CCCCC21 (stereo not given)
≥ 200	22	N#CCCNC(=O)CCn1c2c(c3ccccc31)C(=O)CN1CCCCC21 (stereo not given)
≥ 200	30	Cc1nnsc1S(=O)(=O)NCCCn1c2c(c3ccccc31)C(=O)CN1CCCCC21 (stereo not given)
≥ 200	41	CS(=O)(=O)NCCCn1c2c(c3ccccc31)C(=O)CN1CCCCC21 (stereo not given)
≥ 200	24	O=C(CCCn1c2c(c3ccccc31)C(=O)CN1CCCCC21)NC1CCCC1 (stereo not given)
≥ 200	12	O=C1CN2CCCCC2c2c1c1ccccc1n2CCCNS(=O)(=O)c1cc(Cl)sc1Cl (stereo not given)
≥ 200	39	N#CCCNC(=O)CCCn1c2c(c3ccccc31)C(=O)CN1CCCCC21 (stereo not given)
≥ 200	8	O=C(NCCCn1c2c(c3ccccc31)C(=O)CN1CCCCC21)c1ccc(Cl)c(Cl)c1 (stereo not given)
≥ 200	25	O=C1CN2CCCCC2c2c1c1ccccc1n2CCCNS(=O)(=O)c1cccs1 (stereo not given)
≥ 200	38	O=C1CN2CCCCC2c2c1c1ccccc1n2CCCN1CC(Br)C1=O (stereo not given)

SMILES	MIC [1] [µM]	inhibition (Escherichia coli) [%]
O=C1CN2CCCCC2c2[nH]c3ccccc3c21 (stereo not given)	≥ 200	39
